Measured values from PMC12383022, “Discovery of a Novel Antimicrobial Peptide from Paenibacillus sp. Na14 with Potent Activity Against Gram-Negative Bacteria and Genomic Insights into Its Biosynthetic Pathway” (Antibiotics, 2025).
≈ marks a conversion by molar mass, not a printed value.

How the values were obtained:
P. aeruginosa TISTR 357 [1] = assay: Agar well diffusion assay; format: cell-based, Pseudomonas aeruginosa
Excerpt: (§1) To identify potential active bacterial isolates, the cross-streak and agar well diffusion method was employed against S. aureus TISTR 517 and E. coli TISTR 887, following the protocol described in a previous study. The production kinetics of antibacterial substances by the active bacterial isolates were investigated. Single colonies were suspended in 0.9% NaCl solution, and the turbidity was adjusted to an optical density (OD) of 0.35 at 625 nm. Two milliliters of the cell suspension were inoculated into 98 mL of LB broth and incubated at 37 °C with shaking at 150 rpm for seven days. At each time interval, bacterial growth was evaluated by measuring the OD at 625 nm using a UV-Vis spectrophotometer (JASCO Corporation, Tokyo, Japan). The cell-free supernatant (CFS) was obtained by centrifuging the culture at 10,000× g at 4 °C for 15 min. Subsequently, 100 µL of the supernatant was loaded into wells on MH agar plates precultured with tested pathogens. Colistin and vancomycin served as positive controls in agar well diffusion assay.

S. aureus TISTR 517 [2] = assay: microbe, parasite or virus in culture; format: cell-based, Staphylococcus aureus; settings: Staphylococcus aureus, TISTR517, 24 h, read-out: MBC, S. aureus TISTR 517
Procedure: (§2) A bacterial suspension was prepared by adjusting its turbidity at OD 625 nm to 0.1 and subsequently made a 20-fold dilution using Cation-Adjusted Mueller–Hinton broth (CAHMB) as a diluent. […] The diluted cell suspension (10 µL) was added to each well, and the plates were incubated at 37 °C for 24 h. The CAMHB alone was used as a negative control, while CAMHB containing colistin or vancomycin served as a positive control.

MRSA Strain 2468 [3] = assay: microbe, parasite or virus in culture; format: cell-based, Staphylococcus aureus; settings: Staphylococcus aureus, MRSA, 24 h
Procedure: as §2

S. aureus TISTR 517 [4] = assay: Agar well diffusion assay; format: cell-based, Staphylococcus aureus
Excerpt: as §1

MRSA Strain 2468 [5] = assay: Agar well diffusion assay; format: cell-based, Staphylococcus aureus
Excerpt: as §1

K. pneumoniae TISTR 1383 [6] = assay: Agar well diffusion assay; format: cell-based, Klebsiella pneumoniae
Excerpt: as §1

E. coli TISTR 887 [7] = assay: Agar well diffusion assay; format: cell-based, Escherichia coli
Excerpt: as §1

P. aeruginosa TISTR 357 [8] = format: cell-based, Pseudomonas aeruginosa; settings: broth microdilution, 37 °C, 24 h, triplicate
Procedure: as §2

E. coli TISTR 887 [9] = format: cell-based, Escherichia coli; settings: broth microdilution, 37 °C, 24 h, triplicate
Procedure: as §2

K. pneumoniae TISTR 1383 [10] = format: cell-based, Klebsiella pneumoniae; settings: broth microdilution, 37 °C, 24 h, triplicate
Procedure: as §2

[11] = agar well diffusion, MH agar, CFS obtained at 24 h of cultivation, 100 µL per well, colistin 25 μg, vancomycin 30 μg, mean ± SD, n = 3

Compound | zone of inhibition at 30 µg/disc (P. aeruginosa TISTR 357 [1]; Pseudomonas aeruginosa, TISTR357, 24 h, read-out: Zone of Inhibition, P. aeruginosa TISTR 357) | MBC (S. aureus TISTR 517 [2]) | MBC (MRSA Strain 2468 [3]; read-out: MBC, MRSA strain 2468) | MIC (MRSA Strain 2468 [3]; read-out: MIC, MRSA strain 2468) | zone of inhibition at 30 µg/disc (S. aureus TISTR 517 [4]; Staphylococcus aureus, TISTR517, 24 h, read-out: Zone of Inhibition, S. aureus TISTR 517) | zone of inhibition at 30 µg/disc (MRSA Strain 2468 [5]; Staphylococcus aureus, MRSA, 24 h, read-out: Zone of Inhibition, MRSA Strain 2468) | zone of inhibition at 30 µg/disc (K. pneumoniae TISTR 1383 [6]; Klebsiella pneumoniae, TISTR1383, 24 h, read-out: Zone of Inhibition, K. pneumoniae TISTR 1383) | zone of inhibition at 30 µg/disc (E. coli TISTR 887 [7]; Escherichia coli, TISTR887, 24 h, read-out: Zone of Inhibition, E. coli TISTR 887) | MIC, P. aeruginosa TISTR 357 (P. aeruginosa TISTR 357 [8]; CAMHB) | MBC, P. aeruginosa TISTR 357 (P. aeruginosa TISTR 357 [8]; then plated on MH agar) | Zone of Inhibition, P. aeruginosa TISTR 357 (P. aeruginosa TISTR 357 [1]; [11]) | MIC, E. coli TISTR 887 (E. coli TISTR 887 [9]; CAMHB) | MBC, E. coli TISTR 887 (E. coli TISTR 887 [9]; then plated on MH agar) | Zone of Inhibition, S. aureus TISTR 517 (S. aureus TISTR 517 [4]; [11]) | Zone of Inhibition, MRSA Strain 2468 (MRSA Strain 2468 [5]; [11]) | MIC, K. pneumoniae TISTR 1383 (K. pneumoniae TISTR 1383 [10]; CAMHB) | MBC, K. pneumoniae TISTR 1383 (K. pneumoniae TISTR 1383 [10]; then plated on MH agar) | Zone of Inhibition, K. pneumoniae TISTR 1383 (K. pneumoniae TISTR 1383 [6]; [11]) | Zone of Inhibition, E. coli TISTR 887 (E. coli TISTR 887 [7]; [11])
CN[C@H](CC(C)C)C(=O)N[C@H]1C(=O)N[C@@H](CC(N)=O)C(=O)N[C@H]2C(=O)N[C@H]3C(=O)N[C@H](C(=O)N[C@H](C(=O)O)c4cc(O)cc(O)c4-c4cc3ccc4O)[C@H](O)c3ccc(c(Cl)c3)Oc3cc2cc(c3O[C@@H]2O[C@H](CO)[C@@H](O)[C@H](O)[C@H]2O[C@H]2C[C@](C)(N)[C@H](O)[C@H](C)O2)Oc2ccc(cc2Cl)[C@H]1O [Vancomycin] | 0 mm | 2 µg/mL (≈ 1.38 µM) | 4 µg/mL (≈ 2.76 µM) | 4 µg/mL (≈ 2.76 µM) | 28.5 ± 0.22 mm | 29 ± 0.43 mm | 0 mm | 0 mm |  |  |  |  |  |  |  |  |  |  | 
Colistin [reference compound] |  |  |  |  |  |  |  |  | 2 µg/mL | 2 µg/mL | 29.41 ± 0.65 mm | 1 µg/mL | 1 µg/mL | 0.00 ± 0.00 mm | 0.00 ± 0.00 mm | 1 µg/mL | 1 µg/mL | 26.67 ± 0.22 mm | 26.52 ± 0.43 mm
